Data: the kinase profiling compilation of Christmann-Franck et al. (2016)

Assays:
Test in all cases: KINOMEscan competition binding
EPHA6 (human) = EPHA6 (human) (UniProt Q9UF33)
FGFR2 (human) = FGFR2 (human) (UniProt P21802)
PIK3CA (human) = PIK3CA (human) (UniProt P42336)
EIF2AK2 (human) = EIF2AK2 (human) (UniProt P19525)
NEK2 (human) = NEK2 (human) (UniProt P51955)
PIP5K1C (human) = PIP5K1C (human) (UniProt O60331)
ZAP70 (human) = ZAP70 (human) (UniProt P43403)
PIP4K2C (human) = PIP4K2C (human) (UniProt Q8TBX8)
IRAK4 (human) = IRAK4 (human) (UniProt Q9NWZ3)
SGK110 (human) = SGK110 (human) (UniProt P0C264)
STK39 (human) = STK39 (human) (UniProt Q9UEW8)
PIM3 (human) = PIM3 (human) (UniProt Q86V86)
[1] = tested on: FLT3 (human), P36888 [R834Q]
FYN (human) = FYN (human) (UniProt P06241)
ERBB2 (human) = ERBB2 (human) (UniProt P04626)
PIM1 (human) = PIM1 (human) (UniProt P11309)
[2] = tested on: PIK3CA (human), P42336 [E545A]
HIPK1 (human) = HIPK1 (human) (UniProt Q86Z02)
CDKL1 (human) = CDKL1 (human) (UniProt Q00532)
DSTYK (human) = DSTYK (human) (UniProt Q6XUX3)
PIK3CB (human) = PIK3CB (human) (UniProt P42338)
MKNK2 (human) = MKNK2 (human) (UniProt Q9HBH9)
RPS6KA6 KD2 (human) = RPS6KA6 KD2 (human) (UniProt Q9UK32)
STK32A (human) = STK32A (human) (UniProt Q8WU08)
[3] = tested on: EGFR (human), P00533 [746-750 del]
HIPK2 (human) = HIPK2 (human) (UniProt Q9H2X6)
STK10 (human) = STK10 (human) (UniProt O94804)
NEK3 (human) = NEK3 (human) (UniProt P51956)
MINK1 (human) = MINK1 (human) (UniProt Q8N4C8)
AURKA (human) = AURKA (human) (UniProt O14965)
MAP2K6 (human) = MAP2K6 (human) (UniProt P52564)
CSNK1E (human) = CSNK1E (human) (UniProt P49674)
STK35 (human) = STK35 (human) (UniProt Q8TDR2)
ULK3 (human) = ULK3 (human) (UniProt Q6PHR2)
[4] = tested on: FGFR3 (human), P22607 [G697C]
[5] = tested on: KIT (human), P10721 [D816V]
TIE1 (human) = TIE1 (human) (UniProt P35590)
MAPK1 (human) = MAPK1 (human) (UniProt P28482)
ULK2 (human) = ULK2 (human) (UniProt Q8IYT8)
AKT2 (human) = AKT2 (human) (UniProt P31751)
STK16 (human) = STK16 (human) (UniProt O75716)
TNNI3K (human) = TNNI3K (human) (UniProt Q59H18)
STK32B (human) = STK32B (human) (UniProt Q9NY57)

PIK3CA (human), P42336 [E545A], sequence (P42336 whole entry E545A, looked up): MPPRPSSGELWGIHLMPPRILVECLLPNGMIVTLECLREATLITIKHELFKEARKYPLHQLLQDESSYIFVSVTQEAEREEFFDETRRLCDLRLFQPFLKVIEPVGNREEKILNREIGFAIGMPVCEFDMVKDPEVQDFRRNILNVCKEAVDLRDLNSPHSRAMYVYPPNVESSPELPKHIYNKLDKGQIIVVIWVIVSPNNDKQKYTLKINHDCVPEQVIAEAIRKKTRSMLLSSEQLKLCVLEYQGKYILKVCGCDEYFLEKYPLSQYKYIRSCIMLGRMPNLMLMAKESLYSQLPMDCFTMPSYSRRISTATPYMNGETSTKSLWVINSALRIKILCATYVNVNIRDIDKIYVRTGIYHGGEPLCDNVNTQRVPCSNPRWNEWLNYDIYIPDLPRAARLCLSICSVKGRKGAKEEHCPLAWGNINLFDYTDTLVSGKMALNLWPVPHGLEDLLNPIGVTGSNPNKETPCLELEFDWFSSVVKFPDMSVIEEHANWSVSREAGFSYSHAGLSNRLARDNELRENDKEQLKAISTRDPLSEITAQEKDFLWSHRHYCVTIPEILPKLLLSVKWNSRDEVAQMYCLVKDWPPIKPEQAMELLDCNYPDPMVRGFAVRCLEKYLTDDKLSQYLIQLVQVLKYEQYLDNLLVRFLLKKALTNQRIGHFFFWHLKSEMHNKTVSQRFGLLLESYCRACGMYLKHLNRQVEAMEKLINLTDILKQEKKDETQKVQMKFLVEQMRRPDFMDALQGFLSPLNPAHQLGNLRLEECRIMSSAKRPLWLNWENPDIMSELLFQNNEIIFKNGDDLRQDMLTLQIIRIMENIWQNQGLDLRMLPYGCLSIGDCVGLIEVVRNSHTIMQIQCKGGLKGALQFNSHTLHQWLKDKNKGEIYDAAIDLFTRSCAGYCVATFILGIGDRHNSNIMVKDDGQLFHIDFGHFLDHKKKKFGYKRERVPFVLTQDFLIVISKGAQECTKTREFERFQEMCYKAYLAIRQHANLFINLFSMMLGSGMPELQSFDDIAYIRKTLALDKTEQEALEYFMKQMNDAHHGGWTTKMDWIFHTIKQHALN
ZAP70 (human), sequence (P43403 whole entry, looked up): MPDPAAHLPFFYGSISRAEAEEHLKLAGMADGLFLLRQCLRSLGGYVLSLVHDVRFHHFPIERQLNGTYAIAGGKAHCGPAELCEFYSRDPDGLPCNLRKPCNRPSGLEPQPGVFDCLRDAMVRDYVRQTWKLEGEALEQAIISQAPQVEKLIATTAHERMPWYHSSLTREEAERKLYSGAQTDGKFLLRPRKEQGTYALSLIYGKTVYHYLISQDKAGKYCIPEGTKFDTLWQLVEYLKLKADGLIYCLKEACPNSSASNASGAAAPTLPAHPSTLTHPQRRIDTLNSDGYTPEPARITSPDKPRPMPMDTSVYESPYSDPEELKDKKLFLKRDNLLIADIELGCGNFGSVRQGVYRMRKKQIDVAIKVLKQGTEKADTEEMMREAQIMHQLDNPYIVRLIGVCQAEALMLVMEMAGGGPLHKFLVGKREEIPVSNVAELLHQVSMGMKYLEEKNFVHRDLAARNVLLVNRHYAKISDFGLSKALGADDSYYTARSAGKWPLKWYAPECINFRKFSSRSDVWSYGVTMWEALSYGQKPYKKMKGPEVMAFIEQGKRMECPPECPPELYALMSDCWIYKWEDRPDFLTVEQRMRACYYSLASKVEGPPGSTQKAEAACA
MKNK2 (human), sequence (Q9HBH9 whole entry, looked up): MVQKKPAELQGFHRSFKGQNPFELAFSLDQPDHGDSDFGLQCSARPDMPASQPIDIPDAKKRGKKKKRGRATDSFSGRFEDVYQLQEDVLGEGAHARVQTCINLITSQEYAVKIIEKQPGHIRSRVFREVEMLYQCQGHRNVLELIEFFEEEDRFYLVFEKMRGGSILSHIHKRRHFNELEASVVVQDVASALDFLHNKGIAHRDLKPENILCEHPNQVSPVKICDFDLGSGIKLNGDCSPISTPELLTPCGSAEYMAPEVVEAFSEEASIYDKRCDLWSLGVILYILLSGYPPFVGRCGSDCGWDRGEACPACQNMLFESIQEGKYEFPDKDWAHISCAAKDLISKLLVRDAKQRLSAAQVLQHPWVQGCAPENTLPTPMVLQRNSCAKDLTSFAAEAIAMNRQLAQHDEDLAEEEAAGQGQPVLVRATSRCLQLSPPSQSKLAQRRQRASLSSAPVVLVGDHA
PIK3CB (human), sequence (P42338 whole entry, looked up): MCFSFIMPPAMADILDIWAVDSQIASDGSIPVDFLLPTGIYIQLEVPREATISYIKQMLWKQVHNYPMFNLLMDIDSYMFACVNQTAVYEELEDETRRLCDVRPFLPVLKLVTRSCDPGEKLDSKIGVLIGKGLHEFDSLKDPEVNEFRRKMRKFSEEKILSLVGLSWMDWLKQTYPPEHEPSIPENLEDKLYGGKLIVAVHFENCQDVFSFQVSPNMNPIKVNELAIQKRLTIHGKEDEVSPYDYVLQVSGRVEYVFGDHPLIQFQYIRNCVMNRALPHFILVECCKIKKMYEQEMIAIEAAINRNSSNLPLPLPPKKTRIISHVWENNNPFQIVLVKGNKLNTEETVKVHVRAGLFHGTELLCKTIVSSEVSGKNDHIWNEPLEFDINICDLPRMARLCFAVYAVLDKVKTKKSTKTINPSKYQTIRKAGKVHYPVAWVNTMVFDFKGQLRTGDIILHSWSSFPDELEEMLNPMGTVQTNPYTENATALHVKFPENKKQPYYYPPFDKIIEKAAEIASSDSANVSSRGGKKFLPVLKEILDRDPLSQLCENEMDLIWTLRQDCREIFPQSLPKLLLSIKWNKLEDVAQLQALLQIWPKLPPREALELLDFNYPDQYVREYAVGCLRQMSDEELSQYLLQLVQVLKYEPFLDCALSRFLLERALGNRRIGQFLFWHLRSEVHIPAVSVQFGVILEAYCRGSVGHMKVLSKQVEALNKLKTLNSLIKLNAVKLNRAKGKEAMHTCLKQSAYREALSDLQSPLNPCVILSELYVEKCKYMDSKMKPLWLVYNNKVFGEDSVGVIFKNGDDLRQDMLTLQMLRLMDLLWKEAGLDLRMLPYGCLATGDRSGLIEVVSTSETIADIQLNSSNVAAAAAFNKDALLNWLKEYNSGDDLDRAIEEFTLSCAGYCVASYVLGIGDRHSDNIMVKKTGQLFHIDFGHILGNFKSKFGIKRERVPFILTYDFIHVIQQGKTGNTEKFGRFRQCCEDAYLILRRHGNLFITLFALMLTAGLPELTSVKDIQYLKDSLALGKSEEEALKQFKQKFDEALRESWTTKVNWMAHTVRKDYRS
EIF2AK2 (human), sequence (P19525 whole entry, looked up): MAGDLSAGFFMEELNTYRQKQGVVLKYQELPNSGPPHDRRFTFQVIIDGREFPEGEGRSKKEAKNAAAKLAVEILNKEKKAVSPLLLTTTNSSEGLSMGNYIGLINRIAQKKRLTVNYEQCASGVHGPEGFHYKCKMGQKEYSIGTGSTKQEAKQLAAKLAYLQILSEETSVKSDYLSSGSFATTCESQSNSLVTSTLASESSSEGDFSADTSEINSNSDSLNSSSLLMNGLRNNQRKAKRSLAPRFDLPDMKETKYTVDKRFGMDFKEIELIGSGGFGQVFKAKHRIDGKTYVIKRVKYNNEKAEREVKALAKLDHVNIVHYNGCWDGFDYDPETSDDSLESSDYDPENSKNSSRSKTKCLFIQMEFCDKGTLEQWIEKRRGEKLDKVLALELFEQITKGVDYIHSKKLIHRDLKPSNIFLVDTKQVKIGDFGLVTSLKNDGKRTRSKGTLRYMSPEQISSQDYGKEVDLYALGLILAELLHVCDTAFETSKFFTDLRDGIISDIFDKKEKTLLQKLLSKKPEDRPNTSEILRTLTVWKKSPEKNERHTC
NEK3 (human), sequence (P51956 whole entry, looked up): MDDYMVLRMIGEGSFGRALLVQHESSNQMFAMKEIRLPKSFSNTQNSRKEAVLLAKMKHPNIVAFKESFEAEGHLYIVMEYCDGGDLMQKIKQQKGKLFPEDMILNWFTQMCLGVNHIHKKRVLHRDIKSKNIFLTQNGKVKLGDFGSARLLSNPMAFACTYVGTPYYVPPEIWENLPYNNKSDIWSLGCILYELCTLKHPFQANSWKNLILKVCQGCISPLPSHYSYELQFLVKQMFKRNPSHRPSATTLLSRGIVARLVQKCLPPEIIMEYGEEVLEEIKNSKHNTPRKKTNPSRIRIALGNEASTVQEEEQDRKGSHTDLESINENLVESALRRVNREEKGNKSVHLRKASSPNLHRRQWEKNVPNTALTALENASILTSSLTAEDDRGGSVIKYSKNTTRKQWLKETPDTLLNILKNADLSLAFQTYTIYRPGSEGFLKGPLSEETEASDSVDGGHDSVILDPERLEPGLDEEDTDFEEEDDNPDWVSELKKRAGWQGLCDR
STK16 (human), sequence (O75716 whole entry, looked up): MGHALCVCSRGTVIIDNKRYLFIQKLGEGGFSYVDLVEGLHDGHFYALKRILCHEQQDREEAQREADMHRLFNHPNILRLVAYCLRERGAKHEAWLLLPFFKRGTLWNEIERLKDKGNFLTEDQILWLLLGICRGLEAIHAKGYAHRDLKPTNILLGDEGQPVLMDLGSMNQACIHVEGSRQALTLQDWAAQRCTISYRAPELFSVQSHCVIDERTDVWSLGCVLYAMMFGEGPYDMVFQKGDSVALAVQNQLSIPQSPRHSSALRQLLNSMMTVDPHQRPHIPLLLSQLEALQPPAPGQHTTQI
IRAK4 (human), sequence (Q9NWZ3 whole entry, looked up): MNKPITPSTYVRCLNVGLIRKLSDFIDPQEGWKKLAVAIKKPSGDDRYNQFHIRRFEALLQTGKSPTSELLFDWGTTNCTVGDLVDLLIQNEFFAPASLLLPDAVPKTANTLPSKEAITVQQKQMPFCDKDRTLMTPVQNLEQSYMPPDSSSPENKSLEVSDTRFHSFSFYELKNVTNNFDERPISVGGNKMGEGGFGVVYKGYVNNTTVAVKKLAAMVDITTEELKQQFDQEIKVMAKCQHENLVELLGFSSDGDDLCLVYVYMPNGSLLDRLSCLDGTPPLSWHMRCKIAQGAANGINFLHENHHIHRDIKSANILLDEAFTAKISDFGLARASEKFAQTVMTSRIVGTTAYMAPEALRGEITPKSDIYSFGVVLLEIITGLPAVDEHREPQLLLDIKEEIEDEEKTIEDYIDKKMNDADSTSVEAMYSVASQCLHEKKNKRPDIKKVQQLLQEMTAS

Compound `Cc1ccc(NC(=O)c2ccc(NC(=O)/C=C/CN(C)C)cc2)cc1Nc1nccc(-c2cccnc2)n1` has a kinase still bound, per cent of control (EPHA6 (human); compound 10.0 µM) of 100%, a kinase still bound, per cent of control (FGFR2 (human); compound 10.0 µM) of 100% and a kinase still bound, per cent of control (PIK3CA (human); compound 10.0 µM) of 100%. For the same compound, the kinase still bound, per cent of control (EIF2AK2 (human); compound 10.0 µM) was 100%, the kinase still bound, per cent of control (NEK2 (human); compound 10.0 µM) was 100% and the kinase still bound, per cent of control (PIP5K1C (human); compound 10.0 µM) was 90%. It also gave a kinase still bound, per cent of control (ZAP70 (human); compound 10.0 µM) of 56%, a kinase still bound, per cent of control (PIP4K2C (human); compound 10.0 µM) of 2% and a kinase still bound, per cent of control (IRAK4 (human); compound 10.0 µM) of 81%. It also gave a kinase still bound, per cent of control (SGK110 (human); compound 10.0 µM) of 85%, a kinase still bound, per cent of control (STK39 (human); compound 10.0 µM) of 82% and a kinase still bound, per cent of control (PIM3 (human); compound 10.0 µM) of 66%. It also gave a kinase still bound, per cent of control ([1]; compound 10.0 µM) of 56%, a kinase still bound, per cent of control (FYN (human); compound 10.0 µM) of 95% and a kinase still bound, per cent of control (ERBB2 (human); compound 10.0 µM) of 50%. It also gave a kinase still bound, per cent of control (PIM1 (human); compound 10.0 µM) of 69%, a kinase still bound, per cent of control ([2]; compound 10.0 µM) of 100% and a kinase still bound, per cent of control (HIPK1 (human); compound 10.0 µM) of 44%. It also gave a kinase still bound, per cent of control (CDKL1 (human); compound 10.0 µM) of 100%, a kinase still bound, per cent of control (DSTYK (human); compound 10.0 µM) of 81% and a kinase still bound, per cent of control (PIK3CB (human); compound 10.0 µM) of 100%. The kinase still bound, per cent of control (MKNK2 (human); compound 10.0 µM) was 4.2%, the kinase still bound, per cent of control (RPS6KA6 KD2 (human); compound 10.0 µM) was 67% and the kinase still bound, per cent of control (STK32A (human); compound 10.0 µM) was 50%. It also gave a kinase still bound, per cent of control ([3]; compound 10.0 µM) of 61%, a kinase still bound, per cent of control (HIPK2 (human); compound 10.0 µM) of 54% and a kinase still bound, per cent of control (STK10 (human); compound 10.0 µM) of 89%. It also gave a kinase still bound, per cent of control (NEK3 (human); compound 10.0 µM) of 99%, a kinase still bound, per cent of control (MINK1 (human); compound 10.0 µM) of 64% and a kinase still bound, per cent of control (AURKA (human); compound 10.0 µM) of 100%. It also gave a kinase still bound, per cent of control (MAP2K6 (human); compound 10.0 µM) of 100%, a kinase still bound, per cent of control (CSNK1E (human); compound 10.0 µM) of 72% and a kinase still bound, per cent of control (STK35 (human); compound 10.0 µM) of 82%. For the same compound, the kinase still bound, per cent of control (ULK3 (human); compound 10.0 µM) was 100%, the kinase still bound, per cent of control ([4]; compound 10.0 µM) was 97% and the kinase still bound, per cent of control ([5]; compound 10.0 µM) was 38%. It also gave a kinase still bound, per cent of control (TIE1 (human); compound 10.0 µM) of 80%, a kinase still bound, per cent of control (MAPK1 (human); compound 10.0 µM) of 82% and a kinase still bound, per cent of control (ULK2 (human); compound 10.0 µM) of 30%. For the same compound, the kinase still bound, per cent of control (AKT2 (human); compound 10.0 µM) was 100%, the kinase still bound, per cent of control (STK16 (human); compound 10.0 µM) was 34% and the kinase still bound, per cent of control (TNNI3K (human); compound 10.0 µM) was 100%. It also gave a kinase still bound, per cent of control (STK32B (human); compound 10.0 µM) of 100%.
`CN(C)C/C=C/C(=O)Nc1cccc(C(=O)Nc2ccc(Nc3nccc(/C(C#N)=C4\Nc5ccccc5S4)n3)cc2)c1` gave a kinase still bound, per cent of control (EPHA6 (human); compound 1.0 µM) of 100%, a kinase still bound, per cent of control (FGFR2 (human); compound 1.0 µM) of 100% and a kinase still bound, per cent of control (PIK3CA (human); compound 1.0 µM) of 64%. It also gave a kinase still bound, per cent of control (EIF2AK2 (human); compound 1.0 µM) of 100%, a kinase still bound, per cent of control (NEK2 (human); compound 1.0 µM) of 99% and a kinase still bound, per cent of control (PIP5K1C (human); compound 1.0 µM) of 100%. For the same compound, the kinase still bound, per cent of control (ZAP70 (human); compound 1.0 µM) was 81%, the kinase still bound, per cent of control (PIP4K2C (human); compound 1.0 µM) was 35% and the kinase still bound, per cent of control (IRAK4 (human); compound 1.0 µM) was 71%. It also gave a kinase still bound, per cent of control (SGK110 (human); compound 1.0 µM) of 100%, a kinase still bound, per cent of control (STK39 (human); compound 1.0 µM) of 100% and a kinase still bound, per cent of control (PIM3 (human); compound 1.0 µM) of 100%. The kinase still bound, per cent of control ([1]; compound 1.0 µM) was 100%, the kinase still bound, per cent of control (FYN (human); compound 1.0 µM) was 95% and the kinase still bound, per cent of control (ERBB2 (human); compound 1.0 µM) was 100%. For the same compound, the kinase still bound, per cent of control (PIM1 (human); compound 1.0 µM) was 100%, the kinase still bound, per cent of control ([2]; compound 1.0 µM) was 100% and the kinase still bound, per cent of control (HIPK1 (human); compound 1.0 µM) was 100%. The kinase still bound, per cent of control (CDKL1 (human); compound 1.0 µM) was 66%, the kinase still bound, per cent of control (DSTYK (human); compound 1.0 µM) was 100% and the kinase still bound, per cent of control (PIK3CB (human); compound 1.0 µM) was 100%. For the same compound, the kinase still bound, per cent of control (MKNK2 (human); compound 1.0 µM) was 68%, the kinase still bound, per cent of control (RPS6KA6 KD2 (human); compound 1.0 µM) was 100% and the kinase still bound, per cent of control (STK32A (human); compound 1.0 µM) was 100%. The kinase still bound, per cent of control ([3]; compound 1.0 µM) was 72%, the kinase still bound, per cent of control (HIPK2 (human); compound 1.0 µM) was 60% and the kinase still bound, per cent of control (STK10 (human); compound 1.0 µM) was 86%. The kinase still bound, per cent of control (NEK3 (human); compound 1.0 µM) was 100%, the kinase still bound, per cent of control (MINK1 (human); compound 1.0 µM) was 100% and the kinase still bound, per cent of control (AURKA (human); compound 1.0 µM) was 100%. It also gave a kinase still bound, per cent of control (MAP2K6 (human); compound 1.0 µM) of 100%, a kinase still bound, per cent of control (CSNK1E (human); compound 1.0 µM) of 41% and a kinase still bound, per cent of control (STK35 (human); compound 1.0 µM) of 97%. For the same compound, the kinase still bound, per cent of control (ULK3 (human); compound 1.0 µM) was 100%, the kinase still bound, per cent of control ([4]; compound 1.0 µM) was 31% and the kinase still bound, per cent of control ([5]; compound 1.0 µM) was 41%. For the same compound, the kinase still bound, per cent of control (TIE1 (human); compound 1.0 µM) was 70%, the kinase still bound, per cent of control (MAPK1 (human); compound 1.0 µM) was 100% and the kinase still bound, per cent of control (ULK2 (human); compound 1.0 µM) was 73%. The kinase still bound, per cent of control (AKT2 (human); compound 1.0 µM) was 100%, the kinase still bound, per cent of control (STK16 (human); compound 1.0 µM) was 100% and the kinase still bound, per cent of control (TNNI3K (human); compound 1.0 µM) was 100%. The kinase still bound, per cent of control (STK32B (human); compound 1.0 µM) was 99%.
